Assay results reported in patent US20060135574A1, “Novel uses for estrogen beta agonists” (Wyeth, priority 2004, published 2006).

Key:
[1] = system: Male C56/BL6 mice; assay: Apomorphine induced climbing (AIC) in pretreated male mice; format: in vivo; conditions: for attenuation / blockade of apomorphine induced climbing (AIC): male mice pretreated for 3 consecutive days, estradiol benzoate 0.1, 0.3 and 1 mg/kg, at 24 and 48 hours
Text: Patients can be evaluated for cognitive diseases or disorders by any of the tests known in the art. Preclinically, animals can be evaluated for blockade/attenuation of symptoms associated with schizophrenia. Positive symptoms in animal models of schizophrenia can be evaluated by measuring changes in the overall level of activity of dopamine (DA) activity with concomitant parallel changes in locomotor activity (Depoortere R et al., 2003 Neuropsychopharmacology 28(11):1889-902), D-amphetamine (AMPH) and phencyclidine (PCP) via induction of model psychosis or locomotor hyperactivity (Freed W J et al., 1984 Neuropharmacology 23(2A):175-81; Sams-Dodd, F. 1998 Neuropsychopharmacology 19(1): 18-25). For example, Depoortere et al. have described tests for evaluating locomotor activity, catalepsy, climbing and stereotypy, which relate to positive symptomology and side effect profile, by characterizing compounds with typical and atypical antipsychotic efficacy (2003). Attenuation in apomorphine-induced climbing, stereotypy and catalepsy (AIC) can be evaluated as described by Fung Y K et al. 1986 Pharmacol Biochem Behav. 1986 24(1):139-41 and Fung, et aL, 1987 Steroids 49(4-5):287-94. Additionally, negative symptoms of schizophrenia can be evaluated by measuring social interaction under the influence of NMDA antagonists such as PCP (Sams-Dodd F 1998).
Male C56/BL6 mice were pretreated with estradiol benzoate 0.1, 0.3 and 1 mg/kg and an estrogen beta agonist, 7-bromo-2-(4-hydroxyphenyl)-1,3-benzoxazol-5-ol for three (3) consecutive days, and then evaluated for locomotor activity, catalepsy, AIC and stereotypy. Estradiol benzoate attenuated AIC at 24 and 48 hours (approximately 55%), while the estrogen beta agonist, 7-bromo-2-(4-hydroxyphenyl)-1,3-benzoxazol-5-ol, outperformed estradiol benzoate by inducing a sixty percent (60%) blockade of AIC in the male mice.

[2] = system: ovariectomized female rats; assay: Working memory, radial arm maze win-shift task; format: in vivo; conditions: OVX rats; estradiol benzoate 0.02 mg/kg s.c. in oil for 2 days; ERβ and ERα agonists 10 mg/kg for 6 days
Text: Cognitive symptoms of memory, including those from Alzheimer's disease and stroke, can be evaluated by such models as the Fear Conditioning Paradigm (Gould T J et al., 2002 Behav Pharmacol. 13(4):287-94; Hamm A O et al., 2003 Brain 126(Pt 2):267-75) and Radial Arm Test (Aggleton J P et al., 1996 Behav Brain Res. 19(2):133-46), while spatial reference memory and learning can be evaluated in the Morris watermaze (Bontempi B et al., 1996 Eur J Neurosci. 8(11):2348-60). Additionally, memory and hippocampal hypo-functioning can be assessed by measuring the restoration of synaptic plasticity in ovariectomized (OVX) female rats. (Day and Good, 2005 Jan., Neurobiol Learn Mem., 83(1): 13-21). Further, changes in attention function because of schizophrenia can be examined by the five (5) Choice Serial Reaction Time Test (5CSRT) (see Muir J L, et al., 1995 Psychopharmacology (Berl) 118(1): 82-92; Robbins et al., 1998 Ann N Y Acad Sci. 846:222-37).
Female rats were habituated to a water deprivation schedule and to the radial maze for at least one week prior to acquisition. The rats were ovariectomized six to eight (6-8) weeks before testing. Subjects were then treated with either estradiol benzoate (0.02 mg/kg), the ERfl agonist, 7-bromo-2-(4-hydroxyphenyl)-1,3-benzoxazol-5-ol, or an ERα agonist. […]

[3] = system: male Long Evans rats; assay: Novel Object Recognition; format: in vivo; conditions: 0.5 mg/kg injected 30 minutes prior to T1; Trial 2 48 hours after Day 2
Description: (§1) Novel Object Recognition is impaired in several disorders of memory including Alzheimer's disease, schizophrenia, mild cognitive impairment (MCI), stroke, amongst others. In rodents, […] is used extensively to examine the effects of drugs on this form of memory. An ERβ agonist, 7-bromo-2-(4-hydroxyphenyl)-1,3-benzoxazol-5-ol, was tested on this form of memory. In the habituation stage (Day 1), the rats, male Long Evans are habituated for 10 minutes each to an arena that contains 2 identical objects (YY). On trial 1 (Day 2), the arena is set up with a different set of identical objects (e.g., BB) and the animals are allowed to spend 5 minutes sniffing each objects. Thirty (30) minutes prior to T1, animals were injected with 7-bromo-2-(4-hydroxyphenyl)-1,3-benzoxazol-5-ol.

[4] = system: aged rats (15 months); assay: Mild cognitive impairment model: CREB levels and Novel Object Recognition in aged rats; format: in vivo; conditions: single injection 1 mg/kg 30 minutes prior to testing, compared to young 3 month old rats
Description: as §1
cAMP-response-element-binding protein (CREB) is expressed in all cells in the brain and is a member of a family of proteins that function as transcription factors. […] Aged animals show marked decreases in CREB activation and memory; and this decline in cognition in aged rats is a useful model of mild cognitive impairment seen in humans. As such, an ERβ agonist, 7-bromo-2-(4-hydroxyphenyl)-1,3-benzoxazol-5-ol, was tested on this form of recognition memory. […]

[5] = system: hippocampal CA1 region; assay: Synaptic plasticity (LTD/LTP) in the hippocampal CA1 region after ovariectomy; format: in vivo, rats; conditions: chronic replacement, injection every 48 hours over 5 weeks
Text: In Experiment 1, ovariectomy carried out either five (5) days or five (5) weeks before testing impaired the induction of long-term depression (LTD), but not long-term potentiation (LTP). […] The findings are discussed with reference to (1) the contribution of Ca^2+ regulated synaptic signaling pathways in the CA1 region to estradiol modulation of LTP and LTD and (2) the potential functional significance of ovariectomy-induced changes in synaptic plasticity for learning and memory processes. […] Restoration of impaired synaptic plasticity of ovariectomized female rats following estrogen treatment can be evaluated by the protocol used by Day and Good, January 2005, Neurobiol Learn Mem., 83(1): 13-21.

[6] = system: young men diagnosed with severe schizophrenia; conditions: 33 young men, small doses for two weeks; cited from earlier work
[7] = system: βERKO female mice; assay: Phencyclidine (PCP) induced locomotor activity (LMA) during PCP withdrawal; format: in vivo; conditions: 0.3 mg/kg on day 5, sub-effective PCP dose after 4 day withdrawal
Description: Animals were treated for five (5) days with PCP. Following this period, the animals were given a 4 day withdrawal period. One group received 0.3mg/kg estradiol benzoate on day 5. […] Thus, the classic estrogen agonist, estradiol benzoate, effectively blocks the effects of PCP on LMA, with other ERβ agonists likely to behave similarly.

[8] = system: male mice; conditions: cited from earlier work

SMILES	blockade of AIC compared with estrogen treatment (FIG. 1) ([1]; 3 days of treatment)	attenuation / blockade of apomorphine induced climbing (AIC) [1]	working memory in the radial arm maze [2]	time investigating the novel object versus the familiar object in Trial 2 [3]	CREB levels [4]	memory in the NOR method [4]	induction of LTP [5]	magnitude of paired-pulse induced LTD in the CA1 region [5]	hallucinations and delusions [6]	effect on PCP induced LMA [7]	effect on apomorphine induced climbing [8]
Oc1ccc(-c2nc3cc(O)cc(Br)c3o2)cc1 [7-bromo-2-(4-hydroxyphenyl)-1,3-benzoxazol-5-ol]	more profound blockade of AIC	60%	improved working memory	significantly improved	restored the CREB levels	increased memory	–	–	–	–	–
C[C@]12CC[C@@H]3c4ccc(O)cc4CC[C@H]3[C@@H]1CC[C@@H]2O [17β-estradiol]	–	–	–	–	–	–	no effect on the induction of LTP	enhanced the magnitude of paired-pulse induced LTD	significant decline in hallucinations and delusions	–	–
C[C@]12CC[C@@H]3c4ccc(OC(=O)c5ccccc5)cc4CC[C@H]3[C@@H]1CC[C@@H]2O [estradiol benzoate]	–	approximately 55%	improved working memory	–	–	–	–	–	–	successfully blocked the effect of PCP induced LMA	attenuate apomorphine induced climbing
